This assay concerns the target T1, hMAGL (Homo sapiens, UniProt Q99685).
T1 sequence (Q99685 1-303): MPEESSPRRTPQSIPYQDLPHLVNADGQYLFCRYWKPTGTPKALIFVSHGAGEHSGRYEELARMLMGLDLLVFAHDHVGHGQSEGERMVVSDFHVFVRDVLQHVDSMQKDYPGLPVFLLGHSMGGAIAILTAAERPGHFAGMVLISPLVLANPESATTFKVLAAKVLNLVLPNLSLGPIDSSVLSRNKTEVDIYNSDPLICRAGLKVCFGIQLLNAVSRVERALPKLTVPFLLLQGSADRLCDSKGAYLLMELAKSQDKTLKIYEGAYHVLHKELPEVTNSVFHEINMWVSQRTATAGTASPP
In words: 2-AG assay: MAGL inhibition, hydrolysis of 2-arachidonoylglycerol to arachidonic acid followed by mass spectrometry. Format: biochemical. Summed up:
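MAGL preincubated with compound 15 min at RT in 50 mM Tris, 1 mM EDTA, 0.01% Tween-20, 2.5% DMSO; reaction started with 8 μM 2-AG (final), […], 30 min at RT. Quenched with acetonitrile containing d8-arachidonic acid; arachidonic acid quantified by RapidFire SPE-triple quad MS as arachidonic acid/d8 ratio.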

As to `O=C(N1CC2(CC(n3cnc(C(F)(F)F)n3)C2)C1)N1CC2(CN(Cc3nccn3CC(F)(F)F)C2)C1` [Example 233, [6-[[1-(2,2,2-trifluoroethyl)imidazol-2-yl]methyl]-2,6-diazaspiro[3.3]heptan-2-yl]-[6-[3-(trifluoromethyl)-1,2,4-triazol-1-yl]-2-azaspiro[3.3]heptan-2-yl]methanone], the IC50 – broadly, the midpoint of a concentration-inhibition curve – was 176 nM.

On to `O=C(N1CC2(CCC(Cc3nnc(C(F)(F)F)[nH]3)CC2)C1)N1CC2(CC(n3cnc(C4CC4)n3)C2)C1` [Example 36, [6-(3-cyclopropyl-1,2,4-triazol-1-yl)-2-azaspiro[3.3]heptan-2-yl]-[7-[[5-(trifluoromethyl)-4H-1,2,4-triazol-3-yl]methyl]-2-azaspiro[3.5]nonan-2-yl]methanone], for which the IC50 was 302 nM. Against the preceding compound, the IC50 is about 1.7-fold higher.

As for `Cc1cc(C2CC2)n(CC2CC3(C2)CN(C(=O)N2CC4(CC(n5cnc(C(F)(F)F)n5)C4)C2)C3)n1` [Example 131, [6-[(5-cyclopropyl-3-methyl-pyrazol-1-yl)methyl]-2-azaspiro[3.3]heptan-2-yl]-[6-[3-(trifluoromethyl)-1,2,4-triazol-1-yl]-2-azaspiro[3.3]heptan-2-yl]methanone], half-maximal inhibition (IC50) was put at 1.08 nM.

`Cn1cc(CN2CC3(C2)CN(C(=O)N2CC4(CC(n5cnc(C6CC6)n5)C4)C2)C3)c(C(F)(F)F)n1` [Example 192]: the IC50 came to 16.8 nM.

Consider `CC(C)(C)n1nccc1CN1CC2(C1)CN(C(=O)N1CC3(CC(n4cnc(C(F)(F)F)n4)C3)C1)C2` [Example 275, [6-[(2-tert-butylpyrazol-3-yl)methyl]-2,6-diazaspiro[3.3]heptan-2-yl]-[6-[3-(trifluoromethyl)-1,2,4-triazol-1-yl]-2-azaspiro[3.3]heptan-2-yl]methanone], for which the IC50 was 132 nM. Against the preceding compound, the IC50 is about 7.9-fold higher.

In turn, `O=C(N1CC2(CC(Cc3nc(CC(F)(F)F)n[nH]3)C2)C1)N1CC2(CC(n3cnc(C(F)(F)F)n3)C2)C1` [Example 204, [6-[[3-(2,2,2-trifluoroethyl)-1H-1,2,4-triazol-5-yl]methyl]-2-azaspiro[3.3]heptan-2-yl]-[6-[3-(trifluoromethyl)-1,2,4-triazol-1-yl]-2-azaspiro[3.3]heptan-2-yl]methanone] gave a 50% inhibitory concentration (IC50) of 25.8 nM.

`CC(C)(C)c1ncc(CN2CC3(C2)CN(C(=O)N2CC4(CC(n5cnc(C(F)(F)F)n5)C4)C2)C3)s1` [Example 56, [6-[(2-tert-butylthiazol-5-yl)methyl]-2,6-diazaspiro[3.3]heptan-2-yl]-[6-[3-(trifluoromethyl)-1,2,4-triazol-1-yl]-2-azaspiro[3.3]heptan-2-yl]methanone] came in with an IC50 of 10.6 nM.

As for `CC(C)(C)c1csc(CN2CC3(C2)CN(C(=O)N2CC4(CC(n5cnc(C6(O)CC6)n5)C4)C2)C3)n1` [Example 199, [6-[(4-tert-butylthiazol-2-yl)methyl]-2,6-diazaspiro[3.3]heptan-2-yl]-[6-[3-(1-hydroxycyclopropyl)-1,2,4-triazol-1-yl]-2-azaspiro[3.3]heptan-2-yl]methanone], it took 6.7 nM to reach half-maximal inhibition (IC50).

`O=C(N1CC2(CC(n3cnc(C(F)(F)F)n3)C2)C1)N1CC2(CN(Cc3nc(C4CC4)cs3)C2)C1` [Example 239, [6-[(4-cyclopropylthiazol-2-yl)methyl]-2,6-diazaspiro[3.3]heptan-2-yl]-[6-[3-(trifluoromethyl)-1,2,4-triazol-1-yl]-2-azaspiro[3.3]heptan-2-yl]methanone] yielded an IC50 of 18.5 nM.

Regarding `CC(C)(C)c1coc(CN2CC3(C2)CN(C(=O)N2CC4(CC(n5cnc(C(F)(F)F)n5)C4)C2)C3)n1` [Example 97, [6-[(4-tert-butyloxazol-2-yl)methyl]-2,6-diazaspiro[3.3]heptan-2-yl]-[6-[3-(trifluoromethyl)-1,2,4-triazol-1-yl]-2-azaspiro[3.3]heptan-2-yl]methanone], 4.12 nM corresponded to half-maximal inhibition (IC50).

For the compound `Cc1cc(C2CC2)nn1CC1CC2(C1)CN(C(=O)N1CC3(CC(n4cnc(C5CC5)n4)C3)C1)C2` [Example 135, [6-[(3-cyclopropyl-5-methyl-pyrazol-1-yl)methyl]-2-azaspiro[3.3]heptan-2-yl]-[6-(3-cyclopropyl-1,2,4-triazol-1-yl)-2-azaspiro[3.3]heptan-2-yl]methanone], the IC50 was determined as 0.23 nM.

Turning to `O=C(N1CC2(CC(Cc3cnn(C(F)(F)F)c3)C2)C1)N1CC2(CC(n3cnc(C4(O)CC4)n3)C2)C1` [Example 14], the IC50 amounted to 6.35 nM.

`CC(C)(C)c1ncc(CN2CC3(C2)CN(C(=O)N2CC4(CC(n5cnc(C6CC6)n5)C4)C2)C3)s1` [Example 57, [6-[(2-tert-butylthiazol-5-yl)methyl]-2,6-diazaspiro[3.3]heptan-2-yl]-[6-(3-cyclopropyl-1,2,4-triazol-1-yl)-2-azaspiro[3.3]heptan-2-yl]methanone] registered a half-inhibitory concentration (IC50) of 5.1 nM.

Take `O=C(N1CC2(CCN(Cc3cc(C(F)(F)F)on3)CC2)C1)N1CC2(CC(n3cnc(C4(O)CC4)n3)C2)C1` [Example 81, [6-[3-(1-hydroxycyclopropyl)-1,2,4-triazol-1-yl]-2-azaspiro[3.3]heptan-2-yl]-[7-[[5-(trifluoromethyl)isoxazol-3-yl]methyl]-2,7-diazaspiro[3.5]nonan-2-yl]methanone]: the IC50 was 251 nM.

`Cn1nc(C(F)(F)F)cc1CN1CCC2(CC1)CN(C(=O)N1CC3(CC(n4cnc(C5CC5)n4)C3)C1)C2` [Example 26, [6-(3-cyclopropyl-1,2,4-triazol-1-yl)-2-azaspiro[3.3]heptan-2-yl]-[7-[[2-methyl-5-(trifluoromethyl)pyrazol-3-yl]methyl]-2,7-diazaspiro[3.5]nonan-2-yl]methanone]: the IC50 is 3.42 nM.

`N#Cc1cnn(CC2CC3(C2)CN(C(=O)N2CC4(CC(n5cnc(C6(O)CC6)n5)C4)C2)C3)c1` [Example 38]: the IC50 turned out to be 190 nM. Against the preceding compound, the IC50 is about 56-fold higher.

`Cn1nc(CN2CC3(C2)CN(C(=O)N2CC4(CC(c5cc(C6CC6)n[nH]5)C4)C2)C3)cc1C(F)(F)F` [Example 160] came in with an IC50 of 2.08 nM.

In turn, `O=C(N1CC2(CC(Cc3cc(C4(C(F)(F)F)CC4)[nH]n3)C2)C1)N1CC2(CC(n3cnc(C(F)(F)F)n3)C2)C1` [Example 354] showed an IC50 of 0.14 nM.

In turn, `O=C(N1CC2(CC(Cc3cn(CC(F)(F)F)nn3)C2)C1)N1CC2(CC(n3cnc(C(F)(F)F)n3)C2)C1` [Example 336, [6-[[1-(2,2,2-trifluoroethyl)triazol-4-yl]methyl]-2-azaspiro[3.3]heptan-2-yl]-[6-[3-(trifluoromethyl)-1,2,4-triazol-1-yl]-2-azaspiro[3.3]heptan-2-yl]methanone] displayed an IC50 of 8.91 nM. This IC50 is about 64-fold higher than that of the compound before.

`Cc1cc(C(F)F)nn1CC1CC2(C1)CN(C(=O)N1CC3(CC(n4cnc(C5(O)CC5)n4)C3)C1)C2` [Example 96, [6-[[3-(difluoromethyl)-5-methyl-pyrazol-1-yl]methyl]-2-azaspiro[3.3]heptan-2-yl]-[6-[3-(1-hydroxycyclopropyl)-1,2,4-triazol-1-yl]-2-azaspiro[3.3]heptan-2-yl]methanone] came in with an IC50 of 3.05 nM.

Regarding `O=C(N1CC2(CC(Cn3cc(C4(C(F)(F)F)CC4)cn3)C2)C1)N1CC2(CC(n3cnc(C4(O)CC4)n3)C2)C1` [Example 60, [6-[3-(1-hydroxycyclopropyl)-1,2,4-triazol-1-yl]-2-azaspiro[3.3]heptan-2-yl]-[6-[[4-[1-(trifluoromethyl)cyclopropyl]pyrazol-1-yl]methyl]-2-azaspiro[3.3]heptan-2-yl]methanone], the IC50 stood at 1.63 nM.

With `O=C(N1CC2(CC(Cc3nc(C(F)(F)F)co3)C2)C1)N1CC2(CC(n3cnc(C4(O)CC4)n3)C2)C1` [Example 23, [6-[3-(1-hydroxycyclopropyl)-1,2,4-triazol-1-yl]-2-azaspiro[3.3]heptan-2-yl]-[6-[[4-(trifluoromethyl)oxazol-2-yl]methyl]-2-azaspiro[3.3]heptan-2-yl]methanone], the IC50 worked out at 24.5 nM.

Compound `O=C(N1CC2(CC(Cn3ncnc3C(F)(F)F)C2)C1)N1CC2(CC(n3cnc(C(F)(F)F)n3)C2)C1` [Example 333, [6-[3-(trifluoromethyl)-1,2,4-triazol-1-yl]-2-azaspiro[3.3]heptan-2-yl]-[6-[[5-(trifluoromethyl)-1,2,4-triazol-1-yl]methyl]-2-azaspiro[3.3]heptan-2-yl]methanone] displayed an IC50 of 10.3 nM.

For the compound `O=C(N1CC2(CC(Cn3ncnc3C(F)(F)F)C2)C1)N1CC2(CC(n3cnc(C4CC4)n3)C2)C1` [Example 345, [6-(3-cyclopropyl-1,2,4-triazol-1-yl)-2-azaspiro[3.3]heptan-2-yl]-[6-[[5-(trifluoromethyl)-1,2,4-triazol-1-yl]methyl]-2-azaspiro[3.3]heptan-2-yl]methanone], the half-inhibitory concentration (IC50) turned out to be 2.22 nM.

The record behind these values is patent US20260374756A1, “HETEROCYCLIC COMPOUNDS AS INHIBITORS OF MONOACYLGLYCEROL LIPASE (MAGL)” (Hoffmann-La Roche Inc., priority 2022, published 2026).
